From patent US10711000B2 (Fronthera U.S. Pharmaceuticals LLC, priority 2018, dated 2020)
Where two headings read alike, the source gives them in different places.

Target: T1, Autotaxin (Homo sapiens, UniProt Q13822)
T1 construct: from tissue; host or cells: pooled human plasma
Assay: LPA formation in pooled human plasma (ex vivo autotaxin inhibition)
Format: biochemical
Conditions: 2 hours incubation
Method: Autotaxin is a plasma phosphodiesterase that converts lysophosphatidylcholine (LPC) into lysophosphatidic acid (LPA), therefore LPA formation was used to evaluate the potency of autotaxin inhibitors. The potency of compound was evaluated ex vivo in pooled human plasma.
Various concentrations of compound were incubated with plasma for 2 hours, and the LPA 18:2 and 20:4 concentration was measured by LC/MS/MS. To determine the LPA18:2 or 20:4 concentration in study plasma, a 10× calibration standard of LPA 18:2 or 20:4 were prepared by serial dilution in butyl alcohol: 20000, 10000, 5000, 2000, 1000, 500, 200, 100, 50, 20, and 10 ng/mL. 3 μL of calibration standard solution was added into 27.0 μL of blank plasma in 1.5-mL microcentrifuge tubes to generate 1× calibration standards. The 30.0 μL of standards or study plasma was added into 1.5-mL microcentrifuge tubes. 200 μL of butyl alcohol (containing 25.0 ng/mL LPA17:0 for internal control) was added into each 1.5-mL microcentrifuge tube containing study plasma or calibration standards. After vortexing for 1 minute and centrifuging at 10000 rpm for 10 min, 180 μL of supernatant was transferred into a 96-well plate and the LPA18:2 concentration in the plasma was quantitated using LC/MS/MS together with standards. Briefly, 8 μL of the solutions were injected for LC-MS/MS analysis using an ACQUITY UPLC BEH C18 column (2.1×50 mm, 1.7 μm) with mobile phase A [20 mM NH4OAC in water (0.1% FA)] and phase B [5 mM NH4OAC in water/0.2% FA in ACN=5:95]. Mass spectrometer parameters optimization for LPA18:2 were performed by Deprotonated molecular ion at m/z 433.2 ([M−H]^−) for LPA18:2, 457.2 for LPA20:4 and abundant product ion at m/z 152.8 for both LPA18:2 and LPA20:4 were obtained. Quantitative data were acquired in multiple reaction monitoring (MRM) negative electrospray ionization mode
The inhibition rate of LPA formation was determined by comparing the levels of LPA in treated and non-treated plasma. The data was plotted against the corresponding concentration of compound and the IC50 was calculated through non-linear regression fitting.

[1] = LPA 18:2 by LC/MS/MS, read-out: LPA formation (18:2) (IC50)
[2] = LPA 20:4 by LC/MS/MS, read-out: LPA formation (20:4) (IC50)

SMILES	IC50 [1] [µM]	IC50 [2] [µM]
CCc1nn2c(C)cc(-c3cnn(C[C@@H](O)CO)c3)cc2c1N(C)c1nc(-c2ccc(F)cc2)c(C#N)s1 [Example 72, (R)-2-((5-(1-(2,3-dihydroxypropyl)-1H-pyrazol-4-yl)-2-ethyl-7-methylpyrazolo[1,5-a]pyridin-3-yl)(methyl)amino)-4-(4-fluorophenyl)thiazole-5-carbonitrile]	> 1	> 1
Cc1cc(N2CC(C#N)C2)cc2c(N(C)c3nc(-c4ccc(F)cc4)c(C#N)s3)c(C3CC3)nn12 [Example 88, 2-[[5-(3-cyanoazetidin-1-yl)-2-cyclopropyl-7-methyl-pyrazolo[1,5-a]pyridin-3-yl]-methyl-amino]-4-(4-fluorophenyl)thiazole-5-carbonitrile]	> 1	> 1
Cc1cc(N2CCN(CC(N)=O)CC2)cc2c(N(C)c3nc(-c4ccc(F)cc4)c(C#N)s3)c(C3CC3)nn12 [Example 79]	0.5 to 1	0.5 to 1
Cc1cc(N2CCN(C3COC3)CC2)cc2c(N(C)c3nc(-c4ccc(F)cc4)c(C#N)s3)c(C3CC3)nn12 [Example 94, 2-((2-cyclopropyl-7-methyl-5-(4-(oxetan-3-yl)piperazin-1-yl)pyrazolo[1,5-a]pyridin-3-yl)(methyl)amino)-4-(4-fluorophenyl)thiazole-5-carbonitrile]	0.1 to 0.5	0.5 to 1
CCc1nn2c(C)cc(N3CC4(CCN(C(=O)[C@H]5CCCO5)C4)C3)cc2c1N(C)c1nc(-c2ccc(F)cc2)c(C#N)s1 [Example 46, (R)-2-((2-ethyl-7-methyl-5-(6-(tetrahydrofuran-2-carbonyl)-2,6-diazaspiro[3.4]octan-2-yl)pyrazolo[1,5-a]pyridin-3-yl)(methyl)amino)-4-(4-fluorophenyl)thiazole-5-carbonitrile]	0.1 to 0.5	0.1 to 0.5
CCc1nn2c(C)cc(N3CCN(CC(=O)N(C)C)CC3)cc2c1N(C)c1nc(-c2ccc(F)cc2)c(C#N)s1 [Example 24, 2-(4-(3-((5-cyano-4-(4-fluorophenyl)thiazol-2-yl)(methyl)amino)-2-ethyl-7-methylpyrazolo[1,5-a]pyridin-5-yl)piperazin-1-yl)-N,N-dimethylacetamide]	0.1 to 0.5	≤ 0.1
Cc1cc(N2CCN(CC(=O)O)CC2)cc2c(N(C)c3nc(-c4ccc(F)cc4)c(C#N)s3)c(C3CC3)nn12 [Example 80, 2-(4-(3-((5-cyano-4-(4-fluorophenyl)thiazol-2-yl)(methyl)amino)-2-cyclopropyl-7-methylpyrazolo[1,5-a]pyridin-5-yl)piperazin-1-yl)acetic acid]	> 1	> 1
CCc1nn2c(C)cc(N3CC4(C3)CN(S(C)(=O)=O)C4)cc2c1N(C)c1nc(-c2ccc(F)cc2)c(C#N)s1 [Example 71]	0.1 to 0.5	0.1 to 0.5
CCc1nn2c(C)cc(N3CC4(CN(C(=O)C5(O)CC5)C4)C3)cc2c1N(C)c1nc(-c2ccc(F)cc2)c(C#N)s1 [Example 61, 2-((2-ethyl-5-(6-(1-hydroxycyclopropane-1-carbonyl)-2,6-diazaspiro[3.3]heptan-2-yl)-7-methylpyrazolo[1,5-a]pyridin-3-yl)(methyl)amino)-4-(4-fluorophenyl)thiazole-5-carbonitrile]	0.1 to 0.5	0.1 to 0.5
CCc1nn2ccc(N3CC4(CC(C(=O)N5CC(O)C5)C4)C3)cc2c1N(C)c1nc(-c2ccc(F)cc2)c(C#N)s1 [Example 8, 2-[[2-ethyl-5-[6-(3-hydroxyazetidine-1-carbonyl)-2-azaspiro[3.3]heptan-2-yl]pyrazolo[1,5-a]pyridin-3-yl]-methyl-amino]-4-(4-fluorophenyl)thiazole-5-carbonitrile]	0.1 to 0.5	0.1 to 0.5

Other lines, results leading:

IC50 [1] [µM]	IC50 [2] [µM]	SMILES
≤ 0.1	0.1 to 0.5	CCc1nn2c(C)cc(N3CC4(CN(C(=O)C5CCN(C)CC5)C4)C3)cc2c1N(C)c1nc(-c2ccc(F)cc2)c(C#N)s1 [Example 33, 2-((2-ethyl-7-methyl-5-(6-(1-methylpiperidine-4-carbonyl)-2,6-diazaspiro[3.3]heptan-2-yl)pyrazolo[1,5-a]pyridin-3-yl)(methyl)amino)-4-(4-fluorophenyl)thiazole-5-carbonitrile]
≤ 0.1	≤ 0.1	CCc1nn2c(C)cc(N3CC4(CN(C(=O)[C@H]5CCOC5)C4)C3)cc2c1N(C)c1nc(-c2ccc(F)cc2)c(C#N)s1 [Example 39, (S)-2-((2-ethyl-7-methyl-5-(6-(tetrahydrofuran-3-carbonyl)-2,6-diazaspiro[3.3]heptan-2-yl)pyrazolo[1,5-a]pyridin-3-yl)(methyl)amino)-4-(4-fluorophenyl)thiazole-5-carbonitrile]
0.1 to 0.5	0.1 to 0.5	CCc1nn2c(C)cc(N3CCC4(CN(C[C@H](O)CO)C4)C3)cc2c1N(C)c1nc(-c2ccc(F)cc2)c(C#N)s1 [Example 68, (S)-2-((5-(2-(2,3-dihydroxypropyl)-2,6-diazaspiro[3.4]octan-6-yl)-2-ethyl-7-methylpyrazolo[1,5-a]pyridin-3-yl)(methyl)amino)-4-(4-fluorophenyl)thiazole-5-carbonitrile]
0.1 to 0.5	0.1 to 0.5	CCc1nn2c(C)cc(N3CC4(CN(C(=O)[C@@H]5COC[C@H]5O)C4)C3)cc2c1N(C)c1nc(-c2ccc(F)cc2)c(C#N)s1 (stereo in doubt) [Example 74, 2-((2-ethyl-5-(6-(4-hydroxytetrahydrofuran-3-carbonyl)-2,6-diazaspiro[3.3]heptan-2-yl)-7-methylpyrazolo[1,5-a]pyridin-3-yl)(methyl)amino)-4-(4-fluorophenyl)thiazole-5-carbonitrile]
≤ 0.1	≤ 0.1	CCc1nn2cc(F)c(N3CC4(CN(C(=O)N5CC(O)C5)C4)C3)cc2c1N(C)c1nc(-c2ccc(F)cc2)c(C#N)s1 [Example 107, 2-((2-ethyl-6-fluoro-5-(6-(3-hydroxyazetidine-1-carbonyl)-2,6-diazaspiro[3.3]heptan-2-yl)pyrazolo[1,5-a]pyridin-3-yl)(methyl)amino)-4-(4-fluorophenyl)thiazole-5-carbonitrile]
≤ 0.1	≤ 0.1	CCc1nn2c(C)cc(N3CCN(CC(=O)N4CC[C@@H](O)C4)CC3)cc2c1N(C)c1nc(-c2ccc(F)cc2)c(C#N)s1 [Example 25, (R)-2-((2-ethyl-5-(4-(2-(3-hydroxypyrrolidin-1-yl)-2-oxoethyl)piperazin-1-yl)-7-methylpyrazolo[1,5-a]pyridin-3-yl)(methyl)pamino)-4-(4-fluorophenyl)thiazole-5-carbonitrile]
≤ 0.1	≤ 0.1	CCc1nn2c(C)cc(N3CC4(CN(C(=O)C(C)(C)O)C4)C3)cc2c1N(C)c1nc(-c2ccc(F)cc2)c(C#N)s1 [Example 30, 2-((2-ethyl-5-(6-(2-hydroxy-2-methylpropanoyl)-2,6-diazaspiro[3.3]heptan-2-yl)-7-methylpyrazolo[1,5-a]pyridin-3-yl)(methyl)amino)-4-(4-fluorophenyl)thiazole-5-carbonitrile]
≤ 0.1	≤ 0.1	CCc1nn2cc(F)c(N3CCC4(CC3)CN(C(=O)N3CC(O)C3)C4)cc2c1N(C)c1nc(-c2ccc(F)cc2)c(C#N)s1 [Example 110, 2-((2-ethyl-6-fluoro-5-(2-(3-hydroxyazetidine-1-carbonyl)-2,7-diazaspiro[3.5]nonan-7-yl)pyrazolo[1,5-a]pyridin-3-yl)(methyl)amino)-4-(4-fluorophenyl)thiazole-5-carbonitrile]
≤ 0.1	≤ 0.1	CN(c1nc(-c2ccc(F)cc2)c(C#N)s1)c1c(C2CC2)nn2ccc(N3CCN(CC(=O)N4CC(O)C4)CC3)cc12 [Example 21, 2-((2-cyclopropyl-5-(4-(2-(3-hydroxyazetidin-1-yl)-2-oxoethyl)piperazin-1-yl)pyrazolo[1,5-a]pyridin-3-yl)(methyl)amino)-4-(4-fluorophenyl)thiazole-5-carbonitrile]
≤ 0.1	≤ 0.1	CCc1nn2c(C)cc(N3CC4(CCN(C(=O)[C@H]5CCOC5)C4)C3)cc2c1N(C)c1nc(-c2ccc(F)cc2)c(C#N)s1 [Example 45, (S)-2-((2-ethyl-7-methyl-5-(6-(tetrahydrofuran-3-carbonyl)-2,6-diazaspiro[3.4]octan-2-yl)pyrazolo[1,5-a]pyridin-3-yl)(methyl)amino)-4-(4-fluorophenyl)thiazole-5-carbonitrile]
≤ 0.1	≤ 0.1	CCc1nn2cc(C)c(N3CCN(CC(=O)N4CC(O)C4)CC3)cc2c1N(C)c1nc(-c2ccc(F)cc2)c(C#N)s1 [Example 96, 2-((2-ethyl-5-(4-(2-(3-hydroxyazetidin-1-yl)-2-oxoethyl)piperazin-1-yl)-6-methylpyrazolo[1,5-a]pyridin-3-yl)(methyl)amino)-4-(4-fluorophenyl)thiazole-5-carbonitrile]
